Read-outs that look alike come from different tables or passages of the source.
Legend:
[1] = test system: iPS-derived hepatocyte-like cells (HLC); assay: HBV infection of MB-1-treated HLC (HBsAg released into culture medium); type: cell-based, human
[2] = test system: pgRNA; assay: pgRNA, HBV-infected HepaRG; type: cell-based; details: Hepatitis B virus
Experimental: Following 4 day of maturation with 1 μM MB-1, HLC were incubated with HBV (purified from CHB individuals) at multiplicity of infection (MOI) 10-40 without PEG for 24 hr; virus inoculum was removed the following day. HBV infection in PHH was performed at MOI 40+4% PEG. Compound treatment in HLC and PHH was started at day 3 post infection. Compound (in powder) was dissolved in DMSO; the final concentration of DMSO added to cells is 1%. Fresh compound was replenished every 2 day until cells were harvested at day 10 (PHH), or day 14 (HLC). Compound effect on HBV and cellular toxicity was measured by multiplex assay (HBsAg, HBeAg, albumin), branched DNA (pgRNA), or digital PCR (cccDNA) and depicted as % of inhibition compared to DMSO control. Graphs were prepared using Spotfire software.
Levels of pgRNA in infected cells (96-well plate) were measured using QuantiGene Singleplex 2.0 assay (Affymetrix), a hybridization-based assay that utilizes the xMAP™ Luminex magnetic beads and branched DNA (bDNA) signal amplification technology. The assay is performed in 96-well plate according to manufacturer's recommendation. Briefly, cells were lysed and lysates were incubated with HBV probe sets panel at 50-55° C. for 30 min then stored at −80° C. Signal amplification is achieved via sequential hybridization of PreAmplifier, Amplifier, and Label Probe. After adding Streptavidin phycoerythrin (SAPE) substrate, the signal is read using a FlexMap 3D (Luminex) instrument.
Most of HBV in vitro studies, including evaluation of compound antiviral activity, are performed in hepatoma cell lines (HepaRG or HepG2-NTCP) infected with cell culture-derived HBV (e.g. HepG2.2.15-derived virus, GT D). As evaluation of cccDNA destabilizers was performed with patient-derived HBV GT D in PHH (see FIGS. 3F and 4A-4B), the inventors asked whether compound potency would be similar when tested against patient-derived HBV isolates from other GTs, or cell culture-derived virus (HepG2.2.15). To address the first question, PHH (in 384-well plate) were infected with four clinical HBV isolates (GT A-D, at MOI 40). At day 3 pi, cells were treated with compound 7, or DMSO, every other day until harvested and analysed at day 10 pi. Several observations are noteworthy. First, clinical HBV isolates across GTs varied in their replication capacity in PHH; as noted earlier in HLC (see FIG. 21) and also by others (Mabit et al., 1996; Sozzi et al, 2016). […] For each isolate, the amounts of secreted viral antigens are in close agreement with their cccDNA levels; thus, GT A isolate had the highest amount of cccDNA (˜11,000 copies/well), followed by GT C, B, and D (see FIG. 5B). […] Next, the inventors evaluated whether antiviral activity of compound 7 could be affected by the source of virus inoculum. […]

Structure (SMILES) | peak of HBsAg ([1]; HLC treated with MB-1 1 μM for 4 days, patient-derived HBV MOI 10, day 11 pi) [ng/mL] | HBsAg ([1]; HLC with MB-1, HepG2.2.15-derived HBV, MOI 10, day 1 pi) [ng/mL] | HBsAg ([1]; HLC with MB-1, HepG2.2.15-derived HBV, MOI 10, day 3 pi) [ng/mL] | HBsAg ([1]; HLC with MB-1, HepG2.2.15-derived HBV, MOI 10, day 8 pi) [ng/mL] | HBsAg ([1]; HLC with MB-1, HepG2.2.15-derived HBV, MOI 10, day 11 pi) [ng/mL] | HBsAg ([1]; HLC with MB-1, HepG2.2.15-derived HBV, MOI 10, day 14 pi) [ng/mL] | HBsAg ([1]; HLC with MB-1, HepG2.2.15-derived HBV, MOI 100, day 1 pi) [ng/mL] | HBsAg ([1]; HLC with MB-1, HepG2.2.15-derived HBV, MOI 100, day 3 pi) [ng/mL] | HBsAg ([1]; HLC with MB-1, HepG2.2.15-derived HBV, MOI 100, day 8 pi) [ng/mL] | HBsAg ([1]; HLC with MB-1, HepG2.2.15-derived HBV, MOI 100, day 11 pi) [ng/mL] | HBsAg ([1]; HLC with MB-1, HepG2.2.15-derived HBV, MOI 100, day 14 pi) [ng/mL] | HBsAg ([1]; HLC with MB-1, patient-derived HBV, MOI 10, day 1 pi) [ng/mL] | HBsAg ([1]; HLC with MB-1, patient-derived HBV, MOI 10, day 3 pi) [ng/mL] | HBsAg ([1]; HLC with MB-1, patient-derived HBV, MOI 10, day 8 pi) [ng/mL] | HBsAg ([1]; HLC with MB-1, patient-derived HBV, MOI 10, day 11 pi) [ng/mL] | HBsAg ([1]; HLC with MB-1, patient-derived HBV, MOI 10, day 14 pi) [ng/mL] | IC50 ([2]; HepG2.2.15-derived HBV GT D, MOI 40, read-out: pgRNA IC50 (μM) Median) [µM] | IC50 ([2]; HepG2.2.15-derived HBV GT D, MOI 125, read-out: pgRNA IC50 (μM) Median) [µM] | IC50 ([2]; patient-derived HBV GT D, MOI 40, read-out: pgRNA IC50 (μM) Median) [µM] | IC50 ([2]; patient-derived HBV GT D, MOI 125, read-out: pgRNA IC50 (μM) Median) [µM]
O=C(NCc1cccc(F)c1)c1cccc2[nH]c(-c3c(NC[C@@H](O)c4ccccc4)cc[nH]c3=O)nc12 [MB-1] | ~16 | 0.05 ± 0.01 | 0.06 ± 0.01 | 0.08 ± 0.01 | 0.10 ± 0.01 | 0.09 ± 0.01 | 414.13 ± 1.68 | 8.12 ± 2.21 | 0.36 ± 0.11 | 0.73 ± 0.20 | 0.43 ± 0.18 | 0.34 ± 0.06 | 0.93 ± 0.25 | 5.87 ± 1.34 | 14.31 ± 2.02 | 10.39 ± 1.46 | – | – | – | –
O=C(NC(CO)CO)c1c[nH]c2ncc(C3CC3)nc12 [compound 7] | – | – | – | – | – | – | – | – | – | – | – | – | – | – | – | – | 16.8 | 26.6 | 1.93 | 4.62

From patent publication US20230248723A1, “PYRROLO[2,3-B]PYRAZINE COMPOUNDS AS CCCDNA INHIBITORS FOR THE TREATMENT OF HEPATITIS B VIRUS (HBV) INFECTION” (Hoffmann-La Roche Inc., priority 2017, published 2023)
